# In paper PMC6463675, “Panax ginseng Inhibits Metabolism of Diester Alkaloids by Downregulating CYP3A4 Enzyme Activity via the Pregnane X Receptor” (Evidence-based Complementary and Alternative Medicine : eCAM, 2019):
# Legend:
# PXR = tested on: PXR; design: method as in PMID 23600156; conditions: previous work of the authors; cited from earlier work
# CYP3A4 [1] = assay: Cocktail method: pharmacokinetics of probe drug midazolam after P. ginseng; conditions: rats, ketoconazole 40 mg·kg^−1 intraperitoneal 3 days, midazolam 10 mg·kg^−1 caudal vein
# CYP2E1 = target: T1, CYP2E1 (Homo sapiens, UniProt P05181); assay: Specific inhibitor method in HLMs: diethyldithiocarbonate; type: in vitro ADME; conditions: alkaloid 20 μM, DDTC 1 μM (CYP2E1), 37°C 60 min, P > 0.05
# T1 construct: tissue Rild-biotech X008067; host or cells: human liver microsomes
# T1 sequence (P05181 whole entry): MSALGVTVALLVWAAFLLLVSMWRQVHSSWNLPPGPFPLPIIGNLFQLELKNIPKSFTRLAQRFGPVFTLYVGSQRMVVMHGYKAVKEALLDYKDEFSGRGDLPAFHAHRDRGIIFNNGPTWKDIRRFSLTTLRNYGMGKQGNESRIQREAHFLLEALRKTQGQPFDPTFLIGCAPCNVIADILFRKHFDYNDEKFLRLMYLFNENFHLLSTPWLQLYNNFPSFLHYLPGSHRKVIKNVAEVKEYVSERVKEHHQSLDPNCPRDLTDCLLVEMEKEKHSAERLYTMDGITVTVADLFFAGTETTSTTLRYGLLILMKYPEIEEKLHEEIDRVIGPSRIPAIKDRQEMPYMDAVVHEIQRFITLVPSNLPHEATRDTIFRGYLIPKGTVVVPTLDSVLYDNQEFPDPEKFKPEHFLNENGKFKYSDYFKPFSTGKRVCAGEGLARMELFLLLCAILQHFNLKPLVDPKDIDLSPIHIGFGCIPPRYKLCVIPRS
# Procedure: (§1) To screen the CYP isoforms for aconitine, mesaconitine, and hypaconitine metabolism, we used known inhibitors of the metabolism of aconitine, mesaconitine, and hypaconitine in HLMs. ANF (CYP1A2: 1 μM; CAS: […]), SPE (CYP2C9: 1 μM; CAS: 526-08-9), DDTC (CYP2E1: 1 μM; CAS: 148-18-5), and KEN (CYP3A4: 1 μM; CAS: 65277-42-1) were all from EFEBIO Co., Ltd., which were incubated separately with aconitine, mesaconitine, and hypaconitine (20 μM), HLMs, and NADPH under the same incubation conditions as mentioned above. […] The hepatic metabolism rate of the incubation solution with no inhibitor was used as the negative control. The HLM (Rild-biotech, shanghai, China, X008067 ) mixtures were incubated at 37°C for 60 min. NADPH was preincubated for 5 min before it was added to the system. Precooled acetonitrile/methanol (800 μL, 1:1, v/v) was added to stop the incubation. […] Aconitine, mesaconitine, and hypaconitine standards of different concentrations were added to the incubation system to obtain the standard curve.
# CYP3A4 [2] = target: T2, CYP3A4 (Homo sapiens, UniProt P08684); assay: Kinetic analysis in recombinant human CYP3A4; type: in vitro ADME; design: purchased Corning 456202; host or cells: baculovirus infected insect cells (BTI-TN-5B1-4); conditions: for in vitro mean intrinsic clearance rate by CYP3A4: CLint = Vmax/KM
# Source text: (§2) Recombinant human cytochrome P450 enzymes were obtained from Corning (USA, CYP3A4:456202; CYP1A2:456203; CYP2C9:456218; CYP2E1:456206). The activity were catalyzed by CYP3A4/CYP1A2/CYP2C9/CYP2E1, which were expressed from human CYP3A4/CYP1A2/CYP2C9/CYP2E1 cDNA, respectively, using a baculovirus expression system. Baculovirus infected insect cells (BTI-TN-5B1-4) were used to prepare these microsomes. These microsomes also contain cDNA-expressed humans P450 reductase and human cytochrome b5. A microsome preparation using wild type virus (Catalog No. 456201) was used as a control for native activities.
# (§3) The kinetic parameters for the metabolism of aconitine, mesaconitine, and hypaconitine were determined by incubating increasing concentrations of aconitine, mesaconitine, and hypaconitine (5, 10, 20, and 40 μM) at 37°C for 90min with recombinant human CYP isoforms and NADPH under the incubation conditions described above. Precooled acetonitrile/methanol (800 μL, 1:1, v/v) was added to stop the incubation.
# (§4) The compound reaction velocity (V) is expressed as V = (C0 – Ct)/T/Cp, where C0 and Ct are the initial and final concentrations of aconitine, mesaconitine, or hypaconitine in the incubation solution, respectively, T is the incubation time (min), and Cp is the protein concentration (mg·mL^−1 or nmol). The mean intrinsic clearance rate (CLint) for the in vitro incubation was estimated using Vmax/KM, where Vmax is the maximum velocity and KM is the Michaelis constant. All values are expressed as the mean ± standard deviation (SD).
# Target sequence in this assay (P08684 2-503 limits assumed): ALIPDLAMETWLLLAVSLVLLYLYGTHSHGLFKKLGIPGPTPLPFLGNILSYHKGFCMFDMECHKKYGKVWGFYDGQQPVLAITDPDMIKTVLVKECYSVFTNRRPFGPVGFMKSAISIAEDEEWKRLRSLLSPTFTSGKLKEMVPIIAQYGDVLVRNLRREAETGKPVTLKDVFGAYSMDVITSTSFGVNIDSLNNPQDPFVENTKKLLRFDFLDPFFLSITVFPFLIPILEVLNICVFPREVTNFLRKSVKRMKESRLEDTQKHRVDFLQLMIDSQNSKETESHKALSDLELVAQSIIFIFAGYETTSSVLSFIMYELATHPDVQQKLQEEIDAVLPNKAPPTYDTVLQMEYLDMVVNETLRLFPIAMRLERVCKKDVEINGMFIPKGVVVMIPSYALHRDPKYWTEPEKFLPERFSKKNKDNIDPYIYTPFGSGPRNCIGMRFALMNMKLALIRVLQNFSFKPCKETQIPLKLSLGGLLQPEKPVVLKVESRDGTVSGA
# CYP3A4 [3] = target: T2, CYP3A4; assay: Specific inhibitor method in HLMs: ketoconazole; type: in vitro ADME; design: tissue Rild-biotech X008067; host or cells: human liver microsomes; conditions: alkaloid 20 μM, KEN 1 μM (specific inhibitor for CYP3A), 37°C 60 min, n = 3
# Procedure: as §1
# Target sequence in this assay (P08684 whole entry): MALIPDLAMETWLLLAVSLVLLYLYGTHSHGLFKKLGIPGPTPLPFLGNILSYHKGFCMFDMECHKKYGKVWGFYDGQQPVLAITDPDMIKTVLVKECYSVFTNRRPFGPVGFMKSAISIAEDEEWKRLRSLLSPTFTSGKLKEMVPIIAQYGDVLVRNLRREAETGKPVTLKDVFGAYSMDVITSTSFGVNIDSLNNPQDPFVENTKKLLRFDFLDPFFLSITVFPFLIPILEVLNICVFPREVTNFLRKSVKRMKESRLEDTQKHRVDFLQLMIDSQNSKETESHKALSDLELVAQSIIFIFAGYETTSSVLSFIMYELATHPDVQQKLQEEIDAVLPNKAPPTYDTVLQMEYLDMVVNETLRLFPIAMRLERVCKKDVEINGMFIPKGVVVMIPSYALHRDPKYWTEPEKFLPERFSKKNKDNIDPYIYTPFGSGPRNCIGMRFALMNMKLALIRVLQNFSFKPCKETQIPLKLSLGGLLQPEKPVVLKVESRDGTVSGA
# CYP3A4 [4] = tested on: CYP3A4; design: method as in PMID 23600156; conditions: concentration-dependent manner; cited from earlier work
# recombinant human CYP1A2 = target: T3, recombinant human CYP1A2 (Homo sapiens, UniProt P05177); assay: Kinetic analysis in recombinant human CYP1A2; type: in vitro ADME; conditions: substrate 5, 10, 20, 40 μM, 37°C 90 min, n = 3
# T3 construct: purchased Corning 456203; host or cells: baculovirus infected insect cells (BTI-TN-5B1-4)
# T3 sequence (P05177 2-516 limits assumed): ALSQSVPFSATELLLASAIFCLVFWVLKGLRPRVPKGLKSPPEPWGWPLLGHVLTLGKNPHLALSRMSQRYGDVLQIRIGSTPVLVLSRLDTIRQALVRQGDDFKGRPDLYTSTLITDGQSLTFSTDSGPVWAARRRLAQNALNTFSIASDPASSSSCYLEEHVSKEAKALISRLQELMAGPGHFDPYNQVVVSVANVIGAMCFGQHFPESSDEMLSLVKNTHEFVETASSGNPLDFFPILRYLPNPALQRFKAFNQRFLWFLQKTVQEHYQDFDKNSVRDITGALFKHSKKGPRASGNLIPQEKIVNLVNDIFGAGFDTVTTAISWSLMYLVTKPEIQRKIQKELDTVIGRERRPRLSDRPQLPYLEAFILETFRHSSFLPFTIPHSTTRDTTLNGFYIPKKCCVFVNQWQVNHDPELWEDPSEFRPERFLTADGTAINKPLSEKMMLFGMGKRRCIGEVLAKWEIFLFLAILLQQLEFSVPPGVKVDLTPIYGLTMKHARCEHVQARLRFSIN
# Source text: as §2, §3
# as §4, with “The mean intrinsic clearance rate (CLint) for the in vitro incubation was estimated using Vmax/KM, where Vmax is the maximum velocity and KM is the Michaelis constant.” left out
# [5] = recombinant human CYP3A4, substrate 5, 10, 20, 40 μM, 37°C 90 min, n = 3
compound,measurement,setting,value
CC(C)=CCCC(C)(O)[C@H]1CC[C@]2(C)[C@@H]1[C@H](O)C[C@@H]1[C@@]3(C)CC[C@H](O)C(C)(C)[C@@H]3CC[C@]12C (stereo in doubt) [protopanaxadiol],Effect on PXR,PXR,no obvious effects
CC(C)=CCC[C@](C)(O[C@@H]1O[C@H](CO)[C@@H](O)[C@H](O)[C@H]1O)[C@H]1CC[C@]2(C)[C@@H]1[C@H](O)C[C@@H]1[C@@]3(C)CC[C@H](O[C@@H]4O[C@H](CO)[C@@H](O)[C@H](O)[C@H]4O)C(C)(C)[C@@H]3CC[C@]12C [Ginsenoside F2],Effect on PXR,PXR,moderate inductive effects
CC(=O)N1CCN(c2ccc(OCC3COC(Cn4ccnc4)(c4ccc(Cl)cc4Cl)O3)cc2)CC1 (stereo not drawn) [Ketoconazole],AUC(0-t) of midazolam,CYP3A4 [1]; control 2.23 ± 0.64,4.19 ± 0.14^∗∗ mg^.L^-1.h
same,AUC(0-∞) of midazolam,CYP3A4 [1]; control 2.30 ± 0.59,4.25 ± 0.15^∗∗ mg^.L^-1.h
same,CLz of midazolam,CYP3A4 [1]; control 4.66 ± 1.43,2.36 ± 0.08^∗∗ L^.h^-1.kg^−1
same,Cmax of midazolam,CYP3A4 [1]; control 4.84 ± 1.89,10.48 ± 0.63^∗∗ mg^.L^−1
CC1(C)CCC[C@](C)([C@H]2CC[C@]3(C)[C@@H]2[C@H](O)C[C@@H]2[C@@]4(C)CC[C@H](O)C(C)(C)[C@@H]4[C@@H](O)C[C@]23C)O1 [Panaxotriol],Effect on PXR,PXR,inhibitory effects
CC(C)=CCC[C@](C)(O)[C@H]1CC[C@]2(C)[C@@H]1[C@H](O)C[C@@H]1[C@@]3(C)CC[C@H](O[C@@H]4O[C@H](CO)[C@@H](O)[C@H](O)[C@H]4O[C@@H]4O[C@H](CO)[C@@H](O)[C@H](O)[C@H]4O)C(C)(C)[C@@H]3CC[C@]12C [Rg3],Effect on PXR,PXR,no obvious effects
CC(C)=CCC[C@](C)(O)[C@H]1CC[C@]2(C)[C@@H]1[C@H](O)C[C@@H]1[C@@]3(C)CC[C@H](O[C@@H]4O[C@H](CO)[C@@H](O)[C@H](O)[C@H]4O)C(C)(C)[C@@H]3CC[C@]12C [Rh2],Effect on PXR,PXR,no obvious effects
CCN1C[C@]2(COC)[C@H](O)C[C@H](OC)[C@@]34[C@@H]5C[C@@]6(O)[C@H](OC(=O)c7ccccc7)[C@@H]5[C@@](OC(C)=O)([C@@H]([C@H](OC)[C@H]23)[C@@H]14)[C@@H](O)[C@@H]6OC [aconitine],"Hepatic metabolism rate after incubation with DDTC, compared with control",CYP2E1,no significant change
same,Km at 90 min,CYP3A4 [2]; human,10.1 ± 3.26 µM
same,in vitro mean intrinsic clearance rate by CYP3A4,CYP3A4 [2]; recombinant human CYP3A4,0.0119 mL·nmol CYP^−1·min^−1
same,Vmax of CYP3A4,CYP3A4 [2]; [5],0.12 ± 0.01 nmol·mg protein^−1·min^−1
same,"Hepatic metabolism rate when incubated with KEN, compared with negative control",CYP3A4 [3],60.37 ± 5.01%
CC(C)=CCC[C@](C)(O[C@@H]1O[C@H](CO[C@@H]2OC[C@@H](O)[C@H](O)[C@H]2O)[C@@H](O)[C@H](O)[C@H]1O)[C@H]1CC[C@]2(C)[C@@H]1[C@H](O)C[C@@H]1[C@@]3(C)CC[C@H](O[C@@H]4O[C@H](CO)[C@@H](O)[C@H](O)[C@H]4O[C@@H]4O[C@H](CO)[C@@H](O)[C@H](O)[C@H]4O)C(C)(C)[C@@H]3CC[C@]12C [ginsenoside Rb3],Effect on PXR,PXR,inhibitory effects
CC(C)=CCC[C@](C)(O[C@@H]1O[C@H](CO)[C@@H](O)[C@H](O)[C@H]1O)[C@H]1CC[C@]2(C)[C@@H]1[C@H](O)C[C@@H]1[C@@]3(C)CC[C@H](O)C(C)(C)[C@@H]3[C@@H](O[C@@H]3O[C@H](CO)[C@@H](O)[C@H](O)[C@H]3O)C[C@]12C [ginsenoside Rg1],CYP3A4 mRNA expression,CYP3A4 [4],downregulated
same,Effect on PXR,PXR,inhibitory effects
CC(C)=CCC[C@](C)(O)[C@H]1CC[C@]2(C)[C@@H]1[C@H](O)C[C@@H]1[C@@]3(C)CC[C@H](O)C(C)(C)[C@@H]3[C@@H](O[C@@H]3O[C@H](CO)[C@@H](O)[C@H](O)[C@H]3O[C@@H]3O[C@@H](C)[C@H](O)[C@@H](O)[C@H]3O)C[C@]12C [ginsenoside Rg2],Effect on PXR,PXR,inhibitory effects
COC[C@@]12CC[C@H](OC)[C@]34C(C([C@H](OC)[C@H]13)[C@]1(OC(C)=O)[C@H]3[C@@H](OC(=O)c5ccccc5)[C@](O)(C[C@H]34)[C@@H](OC)[C@@H]1O)N(C)C2 [hypaconitine],"Hepatic metabolism rate after incubation with DDTC, compared with control",CYP2E1,no significant change
same,in vitro mean intrinsic clearance rate by CYP3A4,CYP3A4 [2]; recombinant human CYP3A4,0.0091 mL·nmol CYP^−1·min^−1
same,"Hepatic metabolism rate when incubated with KEN, compared with negative control",CYP3A4 [3],10.11 ± 6.19%
COC[C@]12CN(C)[C@@H]3[C@@H]4[C@H](OC)[C@H]1[C@@]3([C@@H](OC)C[C@H]2O)[C@@H]1C[C@@]2(O)[C@H](OC(=O)c3ccccc3)[C@@H]1[C@]4(OC(C)=O)[C@@H](O)[C@@H]2OC [mesaconitine],"Hepatic metabolism rate after incubation with DDTC, compared with control",CYP2E1,no significant change
same,in vitro mean intrinsic clearance rate by CYP3A4,CYP3A4 [2]; recombinant human CYP3A4,0.0056 mL·nmol CYP^−1·min^−1
same,Km,CYP3A4 [2]; [5],131 ± 99.7 µM
same,Vmax of CYP3A4,CYP3A4 [2]; [5],0.73 ± 0.44 nmol·mg protein^−1·min^−1
same,"Hepatic metabolism rate when incubated with KEN, compared with negative control",CYP3A4 [3],21.67 ± 19.64%
same,Vmax of CYP1A2,recombinant human CYP1A2,0.27 ± 6.57 nmol·mg protein^−1·min^−1
CC(C)=CCC[C@](C)(O)[C@H]1CC[C@]2(C)[C@@H]1[C@H](O)C[C@@H]1[C@@]3(C)CC[C@H](O)C(C)(C)[C@@H]3[C@@H](O)C[C@]12C [protopanaxatriol],Effect on PXR,PXR,moderate inductive effects
ginsenoside Rf1,Effect on PXR,PXR,no obvious effects
pseudoginsenoside F11,Effect on PXR,PXR,inhibitory effects
